Measured values reported in patent US20240156861A1, “Cisplatin particles and uses thereof” (CRITITECH, INC., priority 2022, published 2024).
“And” between values parts separate entries of the source, which are not always exact repeats. Identical values can stand only once.

Legend:
Type in all cases: in vivo, female athymic nude mice
[1] = Platinum blood to tumor-site tissue concentration ratios in H69 xenograft mice; details: for Individual platinum blood to tumor-site tissue concentration ratio: individual animals
Experimental: (§1) A total of 130 female athymic nude mice bearing the H69 human lung carcinoma xenograft were assigned to 10 treatment groups. Group 1 (N=5 females) served as the no treatment control. All intratumoral (IT) injections were delivered as single 25 μL injections. […] The maximum concentration of cisplatin solution and LSAM-Cisplatin suspension is 1 mg/mL and 10 mg/mL, respectively. The IT maximum feasible dose (MFD) for cisplatin solution is 25 μg and 250 μg for LSAM-Cisplatin suspension. Group 2 (N=10 females) was administered 47.5% ethanol/47.5% glycerin/5% water IT on Study Days 1 and 16 and served as control. Group 3 (N=20 females) received 133 μg cisplatin intraperitoneal (IP), considered the standard of care (SOC), once weekly for 3 cycles (Days 1, 8, and 15. Group 4 (N=5) was administered a single 125 μg large surface area microparticle (LSAM)-Cisplatin IT injection on Day 1. Group 5 (N=5 females) received a single 187.5 μg LSAM-Cisplatin IT injection on Day 1. Group 6 (N=5 females) was administered a single 250 μg LSAM-Cisplatin IT injection on Day 1. Group 7 (N=20 females) received single 25 μg cisplatin IT injections on Days 1 and 16. Group 8 (N=20 females) received single 125 μg LSAM-Cisplatin IT injections on Days 1 and 16. Group 9 (N=20 females) received single 187.5 μg LSAM-Cisplatin IT injections on Days 1 and 16. Group 10 (N=20 females) received single 250 μg LSAM-Cisplatin IT injections on Days 1 and 16. One hour postdose on Day 1, blood and tumor tissue were collected for determination of platinum concentrations from 3 Group 2 females and 5 females from Groups 3 and 7-10. On Days 8, 16 (predose) and 28, blood and tumor tissue were collected for determination of platinum concentrations from 5 females/Study Day from Groups 3 and 7-10. Total platinum concentrations in blood and tumor tissues were determined by inductively coupled plasma mass spectrometry (ICP-MS).
(§2) All blood and tumor-site tissue platinum concentrations that were reported as BLQ were considered as zero for statistical purposes. Mean and standard deviation are the only statistics reported for blood and tumor-site tissue platinum concentrations and platinum blood to tumor tissue ratios. Composite maximum observed concentration (Cmax), time of Cmax (Tmax), and area under the concentration-time curve (AUC) values for platinum in blood and tumor tissue following single and repeated administration of cisplatin or LSAM-Cisplatin are reported.
Platinum Cmax, Tmax, and AUC values for single-dose blood and tumor-site tissue data are provided in Table 8 and Table 9, respectively. Platinum Cmax, Tmax, and AUC values for multi-dose blood and tumor-site tissue data are provided in Table 10 and Table 11, respectively. Mean single-dose blood platinum concentrations are plotted in FIG. 20. Mean single-dose tumor-site tissue platinum concentrations are plotted in FIG. 21. Mean multiple-dose blood platinum concentration data are plotted in FIG. 22. Mean multiple-dose tumor-site tissue platinum concentration data are plotted in FIG. 23.

[2] = Blood platinum concentrations and PK parameters by ICP-MS in H69 xenograft mice
Experimental: as §1
(§3) The LSAM-Cisplatin pharmacology study was conducted to: • Quantitate platinum content in whole blood and tumors to animals administered cisplatin IP (standard of care, SOC), the MFD of IT cisplatin, and IT LSAM- Cisplatin at the maximum feasible dose (MFD) and two lower doses • Evaluate tumor response • Evaluate increased doses of IT LSAM-Cisplatin up to 2X systemic maximum tolerated dose (MTD) • Evaluate one vs two injections • Evaluate recurrences if tumors regressed
(§4) Blood and tumor-site tissue were collected from each treatment group according to Table 4.
as §2

[3] = tested on: H69 human lung carcinoma xenograft; assay: Tumor-site tissue platinum concentrations and PK parameters by ICP-MS in H69 xenograft mice;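 for Individual Tumor-Site Tissue Platinum Concentrations: unit μg/g tissue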;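 for Mean Tumor-Site Tissue Platinum Concentrations: unit μg/g tissue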
Experimental: as §1, §3, §4, §2

[4] = Group 3: 6 mg/kg IP on Days 1, 8, 15, Day 1 (1 hour postdose)
[5] = Group 3: 6 mg/kg IP on Days 1, 8, 15, Day 1 (1 hour postdose), 6 mg/kg
[6] = Group 3: 6 mg/kg IP on Days 1, 8, 15, Day 8 (pre-dose)
[7] = Group 3: 6 mg/kg IP on Days 1, 8, 15, Day 16
[8] = Group 3: 6 mg/kg IP on Days 1, 8, 15, Day 16, 6 mg/kg
[9] = Group 3: 6 mg/kg IP on Days 1, 8, 15, Day 28
[10] = Group 3: 6 mg/kg IP on Days 1, 8, 15, Day 28, 6 mg/kg
[11] = multiple doses, 6 mg/kg IP on Days 1, 8, and 15
[12] = multiple doses, ~1.1 mg/kg IT on Days 1 and 16
[13] = single dose Day 1, ~1.1 mg/kg IT

N.N.[Cl][Pt][Cl] [Cisplatin]
Individual platinum blood to tumor-site tissue concentration ratio ([1]; Group 3, 6 mg/kg cisplatin IP on Days 1, 8, and 15, sampling Day 1): 1.084 and 0.775 and 0.134 and 0.994
Mean platinum blood to tumor-site tissue concentration ratio ([1]; Group 3, 6 mg/kg cisplatin IP on Days 1, 8, and 15, sampling Day 1, N=4): 0.747
Individual platinum blood to tumor-site tissue concentration ratio ([1]; Group 3, 6 mg/kg cisplatin IP on Days 1, 8, and 15, sampling Day 16): 1.174 and 1.120 and 1.000 and 0.424 and 1.188
Mean platinum blood to tumor-site tissue concentration ratio ([1]; Group 3, 6 mg/kg cisplatin IP on Days 1, 8, and 15, sampling Day 16, N=5): 0.981
Individual platinum blood to tumor-site tissue concentration ratio ([1]; Group 3, 6 mg/kg cisplatin IP on Days 1, 8, and 15, sampling Day 28): 0.506 and 0.267
Mean platinum blood to tumor-site tissue concentration ratio ([1]; Group 3, 6 mg/kg cisplatin IP on Days 1, 8, and 15, sampling Day 28, N=2): 0.386
Individual platinum blood to tumor-site tissue concentration ratio ([1]; Group 7, ~1.1 mg/kg cisplatin IT on Days 1 and 16, sampling Day 1, 1.1 mg/kg): 0.011 and 0.018 and 0.019 and 0.022 and 0.016
Mean platinum blood to tumor-site tissue concentration ratio ([1]; Group 7, ~1.1 mg/kg cisplatin IT on Days 1 and 16, sampling Day 1, N=5): 0.017
Individual platinum blood to tumor-site tissue concentration ratio ([1]; Group 7, ~1.1 mg/kg cisplatin IT on Days 1 and 16, sampling Day 8, 1.1 mg/kg): 0.023 and 0.000 and 0.020 and 0.026 and 0.053
Mean platinum blood to tumor-site tissue concentration ratio ([1]; Group 7, ~1.1 mg/kg cisplatin IT on Days 1 and 16, sampling Day 8, N=5): 0.024
Individual platinum blood to tumor-site tissue concentration ratio ([1]; Group 7, ~1.1 mg/kg cisplatin IT on Days 1 and 16, sampling Day 16, 1.1 mg/kg): 0.000 (3×) and 0.023
Mean platinum blood to tumor-site tissue concentration ratio ([1]; Group 7, ~1.1 mg/kg cisplatin IT on Days 1 and 16, sampling Day 16, N=4): 0.006
Individual platinum blood to tumor-site tissue concentration ratio ([1]; Group 7, ~1.1 mg/kg cisplatin IT on Days 1 and 16, sampling Day 28, 1.1 mg/kg): 0.003 and 0.008 and 0.009 and 0.007 and 0.025
Mean platinum blood to tumor-site tissue concentration ratio ([1]; Group 7, ~1.1 mg/kg cisplatin IT on Days 1 and 16, sampling Day 28, N=5): 0.010
systemic exposure to platinum based on mean blood to tumor-site tissue ratios ([1]; repeated IT administration of 1.1 mg/kg): negligible
Day 28 blood platinum concentrations, IP versus IT ([2]; 6 mg/kg IP (SOC) versus ~1.1 mg/kg IT Days 1 and 16): higher
Mean Blood Platinum Concentrations [2, 4]: 793 ng/mL
Individual Blood Platinum Concentrations [2, 5]: 977 ng/mL and 221 ng/mL and 891 ng/mL and 1040 ng/mL and 838 ng/mL
Mean Blood Platinum Concentrations [2, 6]: 368 ng/mL
Individual Blood Platinum Concentrations ([2]; Group 3: 6 mg/kg IP on Days 1, 8, 15, Day 8 (pre-dose), 6 mg/kg): 441 ng/mL and 304 ng/mL and 428 ng/mL and 241 ng/mL and 426 ng/mL
Mean Blood Platinum Concentrations [2, 7]: 1180 ng/mL
Individual Blood Platinum Concentrations [2, 8]: 884 ng/mL and 1310 ng/mL and 1270 ng/mL and 1110 ng/mL and 1330 ng/mL
Mean Blood Platinum Concentrations [2, 9]: 396 ng/mL
Individual Blood Platinum Concentrations [2, 10]: 493 ng/mL and 472 ng/mL and 363 ng/mL and 188 ng/mL and 465 ng/mL
Mean Blood Platinum Concentrations ([2]; Group 7: ~1.1 mg/kg IT on Days 1 and 16, Day 1 (1 hour postdose)): 189 ng/mL
Individual Blood Platinum Concentrations ([2]; Group 7: ~1.1 mg/kg IT on Days 1 and 16, Day 1 (1 hour postdose), 1.1 mg/kg): 160 ng/mL and 242 ng/mL and 181 ng/mL and 193 ng/mL and 171 ng/mL
Mean Blood Platinum Concentrations ([2]; Group 7: ~1.1 mg/kg IT on Days 1 and 16, Day 8): 57.6 ng/mL
Individual Blood Platinum Concentrations ([2]; Group 7: ~1.1 mg/kg IT on Days 1 and 16, Day 8, 1.1 mg/kg): 69.9 ng/mL and BLQ (below the limit of quantitation (<50 ng/mL) and treated as zero for statistical purposes) and 86.7 ng/mL and 79 ng/mL and 52.6 ng/mL
Mean Blood Platinum Concentrations ([2]; Group 7: ~1.1 mg/kg IT on Days 1 and 16, Day 16 (predose)): 11.4 ng/mL
Individual Blood Platinum Concentrations ([2]; Group 7: ~1.1 mg/kg IT on Days 1 and 16, Day 16 (predose), 1.1 mg/kg): BLQ (below the limit of quantitation (<50 ng/mL) and treated as zero for statistical purposes) (4×) and 56.8 ng/mL
Mean Blood Platinum Concentrations ([2]; Group 7: ~1.1 mg/kg IT on Days 1 and 16, Day 28): 61.1 ng/mL
Individual Blood Platinum Concentrations ([2]; Group 7: ~1.1 mg/kg IT on Days 1 and 16, Day 28, 1.1 mg/kg): 68.1 ng/mL and 68.3 ng/mL and 57.8 ng/mL and 57.4 ng/mL and 53.8 ng/mL
Blood Platinum AUC0-t [2, 11]: 486,824 ng · hr/mL
Blood Platinum Cmax [2, 11]: 1180 ng/mL
Blood Platinum Tmax [2, 11]: 384 h
Blood Platinum AUC0-t [2, 12]: 40,709 ng · hr/mL
Blood Platinum Cmax [2, 12]: 189 ng/mL
Blood Platinum Tmax [2, 12]: 1 h
Blood Platinum AUC0-192 ([2]; single dose Day 1, 6 mg/kg IP): 111,272 ng · hr/mL
Blood Platinum Cmax ([2]; single dose Day 1, 6 mg/kg IP): 793 ng/mL
Blood Platinum Tmax ([2]; single dose Day 1, 6 mg/kg IP): 1 h
Blood Platinum AUC0-192 [2, 13]: 23,645 ng · hr/mL
Blood Platinum AUC0-384 [2, 13]: 30,269 ng · hr/mL
Blood Platinum Cmax [2, 13]: 189 ng/mL
Blood Platinum Tmax [2, 13]: 1 h
Mean Tumor-Site Tissue Platinum Concentrations [3, 4]: 0.734 µg/g
Individual Tumor-Site Tissue Platinum Concentrations [3, 5]: 0.901 μg/g and BLQ (below the limit of quantitation (<0.650 μg/g) and treated as zero for statistical purposes) and 1.15 μg/g and 0.777 μg/g and 0.843 μg/g
Individual Tumor-Site Tissue Platinum Concentrations [3, 6]: BLQ (below the limit of quantitation (<0.650 μg/g) and treated as zero for statistical purposes)
Mean Tumor-Site Tissue Platinum Concentrations ([3]; Group 3: 6 mg/kg IP on Days 1, 8, 15, Day 8 (pre-dose), BLQ treated as zero): 0.00 µg/g
Mean Tumor-Site Tissue Platinum Concentrations [3, 7]: 1.39 µg/g
Individual Tumor-Site Tissue Platinum Concentrations [3, 8]: 0.753 µg/g and 1.17 µg/g and 1.27 µg/g and 2.62 µg/g and 1.12 µg/g
Mean Tumor-Site Tissue Platinum Concentrations [3, 9]: 0.459 µg/g
Individual Tumor-Site Tissue Platinum Concentrations [3, 10]: BLQ (below the limit of quantitation (<0.650 μg/g) and treated as zero for statistical purposes) (3×) and 0.933 μg/g and 1.36 μg/g
Mean Tumor-Site Tissue Platinum Concentrations ([3]; Group 7: 1.1 mg/kg IT on Days 1 and 16, Day 1 (1 hour postdose)): 11.3 µg/g
Individual Tumor-Site Tissue Platinum Concentrations ([3]; Group 7: 1.1 mg/kg IT on Days 1 and 16, Day 1 (1 hour postdose), 1.1 mg/kg): 14.4 µg/g and 13.2 µg/g and 9.66 µg/g and 8.68 µg/g and 10.4 µg/g
Mean Tumor-Site Tissue Platinum Concentrations ([3]; Group 7: 1.1 mg/kg IT on Days 1 and 16, Day 8): 3.23 µg/g
Individual Tumor-Site Tissue Platinum Concentrations ([3]; Group 7: 1.1 mg/kg IT on Days 1 and 16, Day 8, 1.1 mg/kg): 3.06 µg/g and 4.74 µg/g and 4.29 µg/g and 3.02 µg/g and 1.06 µg/g
Mean Tumor-Site Tissue Platinum Concentrations ([3]; Group 7: 1.1 mg/kg IT on Days 1 and 16, Day 16 (predose)): 2.97 µg/g
Individual Tumor-Site Tissue Platinum Concentrations ([3]; Group 7: 1.1 mg/kg IT on Days 1 and 16, Day 16 (predose), 1.1 mg/kg): 1.90 μg/g and 2.42 μg/g and 7.79 μg/g and 2.76 μg/g and BLQ (below the limit of quantitation (<0.650 μg/g) and treated as zero for statistical purposes)
Mean Tumor-Site Tissue Platinum Concentrations ([3]; Group 7: 1.1 mg/kg IT on Days 1 and 16, Day 28): 9.11 µg/g
Individual Tumor-Site Tissue Platinum Concentrations ([3]; Group 7: 1.1 mg/kg IT on Days 1 and 16, Day 28, 1.1 mg/kg): 20.2 µg/g and 8.89 µg/g and 6.35 µg/g and 7.97 µg/g and 2.16 µg/g
Tumor-Site Tissue Platinum AUC0-t [3, 11]: 470 µg·h/g
Tumor-Site Tissue Platinum Tmax [3, 11]: 384 h
Tumor-Site Tissue Platinum AUC0-t [3, 12]: 3,728 μg · hr/g
Tumor-Site Tissue Platinum Tmax [3, 12]: 1 h
Tumor-Site Tissue Platinum AUC0-192 ([3]; single dose Day 1, 6 mg/kg IP): 70.5 µg·h/g
Tumor-Site Tissue Platinum Tmax ([3]; single dose Day 1, 6 mg/kg IP): 1 h
Tumor-Site Tissue Platinum AUC0-192 [3, 13]: 1,393 μg · hr/g
Tumor-Site Tissue Platinum AUC0-384 [3, 13]: 1,988 μg · hr/g
Tumor-Site Tissue Platinum Tmax [3, 13]: 1 h
mean Day 28 tumor-site tissue platinum concentrations, IT versus IP ([3]; ~1.1 mg/kg IT Days 1 and 16 versus 6 mg/kg IP Days 1, 8, 15): greater than following IP administration
